Key:
[1] = tested on: transglutaminase protein; assay: Transglutaminase protein level in keratinocytes by Western blotting; assay type: cell-based, Human; settings: low calcium (0.03 mM), 24 hours
Experimental: Protein concentration was assessed by protein electrophoresis and Western blotting. Cells were lysed is 2% SDS and the lysate sonicated. Protein determinations were made by use of a Bicinchoninic add protein assay (Pierce Chemical Company, Rockford, Ill. USA). Following protein determination, equal amounts at protein (50 μg) were separated by electrophoresis an 7.5% polyacrylamide gels and electroblotted onto polyvinylidene […] membranes (0.2-μ, obtained from Bio-Rad Laboratories Hercules, Calif., USA). Involucrin protein was detected by incubation over-night at 4° C. C. with a polyclonal rabbit anti-human involucrin antibody (1:1000 dilution). The involucrin-specific bands on the autoradiograms were quantitated by densitometry by densitometry. Transglutaminase protein expression was measured in a similar […], using stacking, sample and running buffers containing 4 M urea, and the gels following electrophoresis were washed in 4 M urea, 25 mM TRIS-HCl, pH 7.4, 7.5 mM NaCl, 0.1 mM dithiothreitol (DTT), and 2 mM ethylenediamine tetraacetic acid for 90 minutes prior to electoblotting, allowing the transglutaminase to be detected by antibody. Specific bands on the autoradiograms were quantified by densitometry. Levels of involucrin and transglutaminase protein were measured in keratinocytes incubated in low calcium (0.03 mM) and treated with the test compounds for 24 hours. The are shown in the bar graph of FIG. 17a, where the test compounds are compared with the vehicle alone (control) and cholesterol, using the same bar indications as in FIGS 14 through 16. […] Cholesterol had no effect.

[2] = tested on: keratinocytes; assay: Rate of DNA synthesis (3H-thymidine incorporation) in keratinocytes; assay type: cell-based, Human; settings: 10 μM, 24 hours, low calcium (0.03 mM); 16-hour 3H-thymidine period
Experimental: The rate of DNA synthesis was determined by measuring the incorporation of ^3H-thymidine into cellular DNA after 16 hours of incubation with 2 μCi^3H-thymidine per mL of media (110 Ci/mmol methyl-1′,2′-^3H-thymidine (Amersham Laboratories, Arlington Heights, Ill. USA). The cells were then solubilized in 1N NaOH, and the radioactivity in the washed TCA precipitate was quantitated by scintillation spectroscopy.
Using the procedures set forth in the Materials and Methods section above, 25-hydroxycholesterol (10 μM) and 22(R)-hydroxycholesterol (10 μM, were compared with cholesterol (10 μM) and the vehicle alone control), with treatment for 24 hours under low calcium (0.03 mM) condition. The results are shown in the bar graph of FIG. 19.

[3] = tested on: Preconfluent keratinocytes; assay: Keratinocyte growth: DNA content (bis-benzimidazole fluorimetry); assay type: cell-based, human; settings: mean of three samples
Experimental: Preconfluent keratinocytes were treated for 48 hours with varying concentrations of clofibrate ranging from 0 (vehicle only) to 400 μM, in both low (0.03 mM) calcium and high (1.2 mM) calcium. The treated keratinocytes were harvested and sonicated, and the resulting homogenates were incubated with 1 μL/mL bis-benzimidazole for two hours in the dark. DNA content was quantified by reading the samples on a spectrofluorimeter. Each value in the table is a mean of three samples.

[4] = tested on: Skin explants from gestational day 17 rats; assay: Light and electron microscopy of fetal rat skin explants (epidermal maturation); assay type: cell-based; settings: 300 μM, 48 hours
Experimental: Samples for light microscopy were fixed in modified Karnovsky's solution, plastic-embedded, and 0.5 μm sections were stained with toluidine. Samples for electron microscopy were minced into 1 mm^3 pieces, fixed in modified Karnovsky's fixative, and processed. Sections were stained with uranyl acetate and lead citrate, post-fixed in ruthenium tetroxide, and examined using a Zeiss 10A electron microscope.
Explants incubated in various media woe examined by light microscopy. The incubation di included control medium (containing no activators) and various media individually containing 300 μM clofibrate, 100 μM juvenile hormone III, 300 μM oleic acid, 30 μM linoleic acid, 50 μM farnesol, and various concentrations of 9-cis-retinoic acid, all-trans-retinoic acid, and 1,25-dihydroxy vitamin D3.
Observations were then made of the ultrastructural maturation of the outer epidermis in explants that had been incubated in the various media and then post-fixed in ruthenium tetroxide. Media identical to those of the preceding paragraph were used, excluding the retinoic acid-containing and 1,25-dihydroxy vitamin D3-containing media.

[5] = tested on: β-Glucocerebrosidase; assay: β-Glucocerebrosidase activity in epidermis of treated fetal rat skin explants; assay type: cell-based, rats; settings: clofibrate (300 μM), juvenile hormone III (100 μ), mean of five ± SEM
Experimental: (§1) Epidermis was separated from dermis after incubation in 10 mM ethylenediamine tetraacetic acid (EDTA) in Ca^++- and Mg^++-free phosphate-buffered saline (PBS), pH 7.4, at 37° C. for 30-40 minutes. The tissues were then minced, and homogenized on ice (three times at 15 seconds each with a Polytron homogenizer, followed by sonication twice at ten seconds each at 35% power) in either PBS containing 0.1 mM phenylmethylsulfonyl fluoride (PMSF) and 0.1% Triton X-100 (for β-glucocerebrosidase) or in 10 mM Tris (PH 7.5) containing 0.15 M sucrose and 2 mM EDTA (for steroid sulfatase). β-Glucocerebrosidase activity was measured in the supernatant following centrifugation at 10,000×g for fifteen minutes at 4° C. Steroid sulfatase activity was measured in the microsomal fraction resulting from a […] centrifugation (10 minutes, 4° C.) followed by 60 minutes of 100,000×g ultracentrifugation at 4° C. Protein content was measured by conventional techniques.
β-Glucocerebrosidase) activity was assayed using the synthetic substrate 4-methylumbelliferyl β-D-glucoside (4-MUG). The assays were performed in 5 mM sodium taurocholate in citrate-phosphate buffer (pH 5.6) with 0.5 mM 4-MUG for sixty minutes at 37° C., with a final assay volume of 100 μL, and protein concentration of 1-2 mg/mL. The reaction was terminated with 2 mL of carbonate-bicarbonate buffer (pH 10.5). The fluorescence was then measured at […] (excitation) and 450 λ (emission) and compared with a standard 4-methylumbelliferone (4-MU) curve.
(§2) Skin explants from 17-day fetal rats were incubated for 24 or 48 hours in media individually containing clofibrate (300 μM) and juvenile hormone III […], and control media. Enzyme activity was measured and the results are presented in Table I as the mean values of five determinations±SEM (standard error of the mean). All p values are ≦0.005 compared with controls of the same time period.

[6] = tested on: Steroid Sulfatase; assay: Steroid sulfatase activity in epidermis of treated fetal rat skin explants; assay type: cell-based, rats; settings: clofibrate (300 μM), juvenile hormone III (100 μ), mean of five ± SEM
Experimental: as §1
Steroid sulfatase activity was measured by incubating 100 μg of microsomal protein in 0.1 M Tris containing 5.6 mM glucose (pH 7.4) with 15 μM, (^3H) dihydroepiandrosterone sulfate (DHEAS) (15 μCi) in a final volume of 1.1 mL The product, (^3H) DHEA, was extracted with benzene and an aliquot counted by scintillation spectrophotometry.
as §2

SMILES	TG'ase protein level relative to the control [1]	rate of DNA synthesis [2]	DNA Content After 48 Hours ([3]; Clofibrate 50 μM) [μg/dish]	DNA Content After 48 Hours ([3]; Clofibrate 200 μM) [μg/dish]	DNA Content After 48 Hours ([3]; Clofibrate 400 μM) [μg/dish]	light microscopy of the epidermis [4]	β-Glucocerebrosidase Activity ([5]; 24-Hour Incubation) [nmol/min/mg]	β-Glucocerebrosidase Activity ([5]; 48-Hour Incubation) [nmol/min/mg]	Steroid Sulfatase Activity ([6]; 24-Hour Incubation) [pmol/h/mg]	Steroid Sulfatase Activity ([6]; 48-Hour Incubation) [pmol/h/mg]
C[C@H](CCCC(C)(C)O)[C@H]1CC[C@H]2[C@@H]3CC=C4C[C@@H](O)CC[C@]4(C)[C@H]3CC[C@]12C [25-hydroxycholesterol]	approximately 1.6 fold	50 % of control	–	–	–	–	–	–	–	–
CCOC(=O)C(C)(C)Oc1ccc(Cl)cc1 [clofibrate, 2-(4-chlorophenoxy)-2-methylpropanoic acid ethyl ester]	–	–	14.9 ± 1.5	12.9 ± 1.1	11.0 ± 1.3	had both a multi-layered stratum granulosum and a stratum corneum	2.97 ± 0.30	5.35 ± 0.89	13.90 ± 1.10	22.51 ± 2.60

From patent USRE37770E1, “Treatment of skin conditions by use of PPARα activators” (The Regents of the University of California, priority 1997, dated 2002)
